Source: US20170275270A1, “BENZYL SUBSTITUTED INDAZOLES” (Bayer Pharma Aktiengesellschaft, priority 2014, published 2017)
Values joined by “and” are separate entries in the source; they are usually repeats but may differ in a detail not shown here. Equal values may be shown once. Where a name gives a salt, the structure may show the parent alone. Read-outs that look alike come from different tables or passages of the source.

Biological target: T1, catalytic domain of human Bub1 (amino acids 704-1085) (Homo sapiens, UniProt O43683)
T1 construct: catalytic domain of human Bub1 (amino acids 704-1085); His6 (N); made in house; host or cells: Hi5 insect cells
Assay: Bub1 kinase assay (TR-FRET)
Type: biochemical
Description: To this end, 100-fold concentrated compound solutions (in DMSO) were previously prepared by serial dilution (1:3.4) of 2 mM stocks in a clear low volume 384-well source microtiter plate (Greiner Bio-One, Frickenhausen, Germany), from which 50 nL of compounds were transferred into a black low volume test microtiter plate from the same supplier. […] The resulting mixture (5 μL final volume) was incubated at 22° C. during 60 min., and the reaction was stopped by the addition of 5 μL of an aqueous EDTA-solution (50 mM EDTA, in 100 mM HEPES pH 7.5 and 0.2% (w/v) bovine serum albumin) which also contained the TR-FRET detection reagents (0.2 μM streptavidin-XL665 [Cisbio Bioassays, Codolet, France] and 1 nM anti-phosho-Serine antibody [Merck Millipore, cat. #35-001] and 0.4 nM LANCE EU-W1024 labeled anti-mouse IgG antibody [Perkin-Elmer, product no. AD0077, alternatively a Terbium-cryptate-labeled anti-mouse IgG antibody from Cisbio Bioassays can be used]). The stopped reaction mixture was further incubated 1 h at 22° C. in order to allow the formation of complexes between peptides and detection reagents. Subsequently, the amount of product was evaluated by measurement of the resonance energy transfer from the Eu-chelate-antibody complex recognizing the Phosphoserine residue to the streptavidin-XL665 bound to the biotin moiety of the peptide. […] IC50 values were calculated by fitting the normalized inhibition data to a 4-parameter logistic equation (Minimum, Maximum, IC50, Hill; Y=Max+(Min−Max)/(1+(X/IC50) Hill)).

[1] = Biological Assay 1: Bub1 kinase assay median IC50, 10 μM ATP
[2] = 10 μM ATP, read-out: Biological Assay 1: Bub1 kinase assay median IC50

T1 sequence (O43683 704-1085): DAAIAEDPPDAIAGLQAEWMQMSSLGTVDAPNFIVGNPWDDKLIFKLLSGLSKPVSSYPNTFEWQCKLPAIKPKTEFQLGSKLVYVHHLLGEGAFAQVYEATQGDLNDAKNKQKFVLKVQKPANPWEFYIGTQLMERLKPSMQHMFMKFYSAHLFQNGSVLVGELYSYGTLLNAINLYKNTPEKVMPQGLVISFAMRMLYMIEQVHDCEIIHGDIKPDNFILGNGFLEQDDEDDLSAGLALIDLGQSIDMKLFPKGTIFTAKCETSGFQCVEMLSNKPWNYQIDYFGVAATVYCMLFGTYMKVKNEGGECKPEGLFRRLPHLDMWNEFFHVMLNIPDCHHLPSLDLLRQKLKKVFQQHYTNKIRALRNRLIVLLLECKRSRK

Structure (SMILES) | IC50 [1] | IC50 [2] [nM]
COCCOc1cc(F)c(Cn2nc(-c3nc4c(c(Nc5cc(C)ncc5C)n3)CN(CC(F)(F)F)C4)c3ccccc32)c(F)c1 [Example 2-20-17, 2-{1-[2,6-difluoro-4-(2-methoxyethoxy)benzyl]-1H-indazol-3-yl}-N-(2,5-dimethylpyridin-4-yl)-6-(2,2,2-trifluoroethyl)-6,7-dihydro-5H-pyrrolo[3,4-d]pyrimidin-4-amine] | 34 nM | –
COCCOc1cc(F)c(Cn2nc(-c3nc4c(c(Nc5ccncn5)n3)CN(CC(F)(F)F)C4)c3ccccc32)c(F)c1 [Example 2-20-18, 2-{1-[2,6-difluoro-4-(2-methoxyethoxy)benzyl]-1H-indazol-3-yl}-N-(pyrimidin-4-yl)-6-(2,2,2-trifluoroethyl)-6,7-dihydro-5H-pyrrolo[3,4-d]pyrimidin-4-amine] | 28 nM | –
CCOc1cc(F)c(Cn2nc(-c3ncc(CCN)c(Nc4ccncc4Cl)n3)c3ccccc32)c(F)c1 [Example 2-9-21, 5-(2-aminoethyl)-N-(3-chloropyridin-4-yl)-2-[1-(4-ethoxy-2,6-difluorobenzyl)-1H-indazol-3-yl]pyrimidin-4-amine] | – | 13
CCOc1cc(F)c(Cn2nc(-c3ncc(CCCCN4CC(F)(F)C4)c(Nc4ccncc4)n3)c3ccccc32)c(F)c1 [Example 2-2-20, 5-[4-(3,3-difluoroazetidin-1-yl)butyl]-2-[1-(4-ethoxy-2,6-difluorobenzyl)-1H-indazol-3-yl]-N-(pyridin-4-yl)pyrimidin-4-amine] | 58 nM | –
CCOc1cc(F)c(Cn2nc(-c3nc(C)cc(Nc4ccncc4O)n3)c3ccccc32)c(F)c1 [Example 2-12-80, 4-({2-[1-(4-ethoxy-2,6-difluorobenzyl)-1H-indazol-3-yl]-6-methylpyrimidin-4-yl}amino)pyridin-3-ol] | – | 51
CCOc1cc(F)c(Cn2nc(-c3ncc(CC4CNC4)c(Nc4cc(C)ncc4C)n3)c3ccccc32)c(F)c1 [Example 2-9-19, 5-(azetidin-3-ylmethyl)-N-(2,5-dimethylpyridin-4-yl)-2-[1-(4-ethoxy-2,6-difluorobenzyl)-1H-indazol-3-yl]pyrimidin-4-amine, salt with hydrochloric acid] | 44 nM | –
CCOc1cc(F)c(Cn2nc(-c3ncc(CCCOC)c(Nc4ccncc4C(=O)O)n3)c3ccccc32)c(F)c1 [Example 2-2-10, 4-({2-[1-(4-ethoxy-2,6-difluorobenzyl)-1H-indazol-3-yl]-5-(3-methoxypropyl)pyrimidin-4-yl}amino)nicotinic acid] | 20 nM | –
CCOc1cc(F)c(Cn2nc(-c3nc4c(c(Nc5ccnc(C)c5)n3)COC4)c3ccccc32)c(F)c1 [Example 2-19-16, 2-[1-(4-ethoxy-2,6-difluorobenzyl)-1H-indazol-3-yl]-N-(2-methylpyridin-4-yl)-5,7-dihydrofuro[3,4-d]pyrimidin-4-amine] | 100 nM | –
CCOc1cc(F)c(Cn2nc(-c3nc(Nc4ccnc(NC(C)=O)c4)cc([C@H](C)O)n3)c3ccccc32)c(F)c1 [Example 2-4-9, N-[4-({2-[1-(4-ethoxy-2,6-difluorobenzyl)-1H-indazol-3-yl]-6-[(1S)-1-hydroxyethyl]pyrimidin-4-yl}amino)pyridin-2-yl]acetamide] | 11 nM | –
Cc1cnccc1Nc1nc(-c2nn(Cc3c(F)cc(O)cc3F)c3ccccc23)nc2c1CCC2 [Example 2-6-5, 3,5-difluoro-4-[(3-{4-[(3-methylpyridin-4-yl)amino]-6,7-dihydro-5H-cyclopenta[d]pyrimidin-2-yl}-1H-indazol-1-yl)methyl]phenol] | 7.7 nM | –
CCOc1cc(F)c(Cn2nc(-c3nc(Nc4ccnc(C)n4)cc(-c4nccs4)n3)c3ccccc32)c(F)c1 [Example 2-12-96, 2-[1-(4-ethoxy-2,6-difluorobenzyl)-1H-indazol-3-yl]-N-(2-methylpyrimidin-4-yl)-6-(1,3-thiazol-2-yl)pyrimidin-4-amine] | > 20000 nM and 9200 nM | –
CCOc1cc(F)c(Cn2nc(-c3nc4c(c(Nc5ccncc5C5CC5)n3)CCC4)c3ccccc32)c(F)c1 [Example 2-14-8, N-(3-cyclopropylpyridin-4-yl)-2-[1-(4-ethoxy-2,6-difluorobenzyl)-1H-indazol-3-yl]-6,7-dihydro-5H-cyclopenta[d]pyrimidin-4-amine] | 8.2 nM | –
COCCOc1cc(F)c(Cn2nc(-c3nc4c(c(Nc5ccncn5)n3)CCC4)c3ccccc32)c(F)c1 [Example 2-12-56, 2-{1-[2,6-difluoro-4-(2-methoxyethoxy)benzyl]-1H-indazol-3-yl}-N-(pyrimidin-4-yl)-6,7-dihydro-5H-cyclopenta[d]pyrimidin-4-amine] | 7 nM | –
CCOc1cc(F)c(Cn2nc(-c3nc4c(c(Nc5ccncc5Cl)n3)CCC4)c3ccccc32)c(F)c1 [Example 2-14-7, N-(3-chloropyridin-4-yl)-2-[1-(4-ethoxy-2,6-difluorobenzyl)-1H-indazol-3-yl]-6,7-dihydro-5H-cyclopenta[d]pyrimidin-4-amine] | 9.7 nM | –
Cc1nccc(Nc2nc(-c3nn(Cc4c(F)cc(OCCO)cc4F)c4ccccc34)nc(C)c2F)n1 [Example 2-6-32, 2-{3,5-difluoro-4-[(3-{5-fluoro-4-methyl-6-[(2-methylpyrimidin-4-yl)amino]pyrimidin-2-yl}-1H-indazol-1-yl)methyl]phenoxy}ethanol] | 210 nM | –
COCCOc1cc(F)c(Cn2nc(-c3nc(Nc4ccncc4OC)cc(C(C)C)n3)c3ccccc32)c(F)c1 [Example 2-12-73, 2-{1-[2,6-difluoro-4-(2-methoxyethoxy)benzyl]-1H-indazol-3-yl}-6-isopropyl-N-(3-methoxypyridin-4-yl)pyrimidin-4-amine] | – | 15

Next, values leading:

IC50 [1] | IC50 [2] [nM] | Structure (SMILES)
25 nM | – | CCOc1cc(F)c(Cn2nc(-c3nc4c(c(Nc5ccncc5C)n3)CSC4)c3ccccc32)c(F)c1 [Example 2-19-2, 2-[1-(4-ethoxy-2,6-difluorobenzyl)-1H-indazol-3-yl]-N-(3-methylpyridin-4-yl)-5,7-dihydrothieno[3,4-d]pyrimidin-4-amine]
22 nM | – | CCOc1cc(F)c(Cn2nc(-c3ncc(CCNCC(F)(F)F)c(Nc4ccnc(NC(C)=O)c4)n3)c3ccccc32)c(F)c1 [Example 2-20-15, N-{4-[(2-[1-(4-ethoxy-2,6-difluorobenzyl)-1H-indazol-3-yl]-5-{2-[(2,2,2-trifluoroethyl)amino]ethyl}pyrimidin-4-yl)amino]pyridin-2-yl}acetamide]
7 nM | – | CCOc1cc(F)c(Cn2nc(-c3nc4c(c(Nc5ccncc5)n3)COC4)c3ccccc32)c(F)c1 [Example 2-14-10, 2-[1-(4-ethoxy-2,6-difluorobenzyl)-1H-indazol-3-yl]-N-(pyridin-4-yl)-5,7-dihydrofuro[3,4-d]pyrimidin-4-amine]
– | 9.3 | CCOc1cc(F)c(Cn2nc(-c3ncc(CCN)c(Nc4ccnc(C)n4)n3)c3ccccc32)c(F)c1 [Example 2-9-22, 5-(2-aminoethyl)-2-[1-(4-ethoxy-2,6-difluorobenzyl)-1H-indazol-3-yl]-N-(2-methylpyrimidin-4-yl)pyrimidin-4-amine, salt with hydrochloric acid (1:2)]
26 nM | – | COCCOc1cc(F)c(Cn2nc(-c3nc4c(c(Nc5ccncc5OC)n3)COCC4)c3ccccc32)c(F)c1 [Example 2-12-99, 2-{1-[2,6-difluoro-4-(2-methoxyethoxy)benzyl]-1H-indazol-3-yl}-N-(3-methoxypyridin-4-yl)-7,8-dihydro-5H-pyrano[4,3-d]pyrimidin-4-amin]
– | 8.7 | COCCOc1cc(F)c(Cn2nc(-c3ncc(C)c(Nc4ccncc4OC)n3)c3ccccc32)c(F)c1 [Example 2-2-47, 2-{1-[2,6-difluoro-4-(2-methoxyethoxy)benzyl]-1H-indazol-3-yl}-N-(3-methoxypyridin-4-yl)-5-methylpyrimidin-4-amine]
94 nM | – | CCOc1cc(F)c(Cn2nc(-c3nc(CN4CCOCC4)cc(Nc4ccnc(OC)c4)n3)c3ccccc32)c(F)c1 [Example 2-19-10, 2-[1-(4-ethoxy-2,6-difluorobenzyl)-1H-indazol-3-yl]-N-(2-methoxypyridin-4-yl)-6-(morpholin-4-ylmethyl)pyrimidin-4-amine]
21 nM | – | COCCOc1cc(F)c(Cn2nc(-c3nc4c(c(Nc5ccnc(NC(C)=O)c5)n3)CCC(C)(C)C4)c3ccccc32)c(F)c1 [Example 2-15-12, N-{4-[(2-{1-[2,6-difluoro-4-(2-methoxyethoxy)benzyl]-1H-indazol-3-yl}-7,7-dimethyl-5,6,7,8-tetrahydroquinazolin-4-yl)amino]pyridin-2-yl}acetamide]
46 nM | – | Cc1cc(Nc2nc(-c3nn(Cc4c(F)cc(O)cc4F)c4ccccc34)nc3c2CCC3)ccn1 [Example 2-6-8, 3,5-difluoro-4-[(3-{4-[(2-methylpyridin-4-yl)amino]-6,7-dihydro-5H-cyclopenta[d]pyrimidin-2-yl}-1H-indazol-1-yl)methyl]phenol]
210 nM | – | CCOc1cc(F)c(Cn2nc(-c3ncc(CC4CN(CC(F)(F)F)C4)c(Nc4ccnc(NC(C)=O)c4)n3)c3ccccc32)c(F)c1 [Example 2-11-4, N-{4-[(2-[1-(4-ethoxy-2,6-difluorobenzyl)-1H-indazol-3-yl]-5-{[1-(2,2,2-trifluoroeth-yl)azetidin-3-yl]methyl}pyrimidin-4-yl)amino]pyr-idin-2-yl}acetamide]
